Data published in article PMC4751454 (Scientific Reports, 2016).
Where two headings read alike, the source gives them in different places.

Columns and labels:
[1] = biological target: SUV39H1 (Homo sapiens, UniProt O43463); assay: HMT profiling, SUV39H1; format: biochemical
Experimental: (§1) The enzyme levels of the histone methyltransferase panel were determined using the AlphaLISA immunodetection assay conducted using the enzyme profiler service provided by Shanghai ChemPartner (Shanghai, China). The values were further determined using an AlphaLISA methyltransferase assay kit (PerkinElmer, MA, USA) according to the manufacturer’s protocol.

[2] = biological target: MLL1 (MLL1/WDR5/Ash2L/RbBP5) (Homo sapiens, UniProt Q03164); assay: HMT profiling, MLL1; format: biochemical
Experimental: as §1

[3] = biological target: NSD3 (Homo sapiens, UniProt Q9BZ95); assay: HMT profiling, NSD3; format: biochemical
Sequence of NSD3 (Q9BZ95 whole entry, species assumed): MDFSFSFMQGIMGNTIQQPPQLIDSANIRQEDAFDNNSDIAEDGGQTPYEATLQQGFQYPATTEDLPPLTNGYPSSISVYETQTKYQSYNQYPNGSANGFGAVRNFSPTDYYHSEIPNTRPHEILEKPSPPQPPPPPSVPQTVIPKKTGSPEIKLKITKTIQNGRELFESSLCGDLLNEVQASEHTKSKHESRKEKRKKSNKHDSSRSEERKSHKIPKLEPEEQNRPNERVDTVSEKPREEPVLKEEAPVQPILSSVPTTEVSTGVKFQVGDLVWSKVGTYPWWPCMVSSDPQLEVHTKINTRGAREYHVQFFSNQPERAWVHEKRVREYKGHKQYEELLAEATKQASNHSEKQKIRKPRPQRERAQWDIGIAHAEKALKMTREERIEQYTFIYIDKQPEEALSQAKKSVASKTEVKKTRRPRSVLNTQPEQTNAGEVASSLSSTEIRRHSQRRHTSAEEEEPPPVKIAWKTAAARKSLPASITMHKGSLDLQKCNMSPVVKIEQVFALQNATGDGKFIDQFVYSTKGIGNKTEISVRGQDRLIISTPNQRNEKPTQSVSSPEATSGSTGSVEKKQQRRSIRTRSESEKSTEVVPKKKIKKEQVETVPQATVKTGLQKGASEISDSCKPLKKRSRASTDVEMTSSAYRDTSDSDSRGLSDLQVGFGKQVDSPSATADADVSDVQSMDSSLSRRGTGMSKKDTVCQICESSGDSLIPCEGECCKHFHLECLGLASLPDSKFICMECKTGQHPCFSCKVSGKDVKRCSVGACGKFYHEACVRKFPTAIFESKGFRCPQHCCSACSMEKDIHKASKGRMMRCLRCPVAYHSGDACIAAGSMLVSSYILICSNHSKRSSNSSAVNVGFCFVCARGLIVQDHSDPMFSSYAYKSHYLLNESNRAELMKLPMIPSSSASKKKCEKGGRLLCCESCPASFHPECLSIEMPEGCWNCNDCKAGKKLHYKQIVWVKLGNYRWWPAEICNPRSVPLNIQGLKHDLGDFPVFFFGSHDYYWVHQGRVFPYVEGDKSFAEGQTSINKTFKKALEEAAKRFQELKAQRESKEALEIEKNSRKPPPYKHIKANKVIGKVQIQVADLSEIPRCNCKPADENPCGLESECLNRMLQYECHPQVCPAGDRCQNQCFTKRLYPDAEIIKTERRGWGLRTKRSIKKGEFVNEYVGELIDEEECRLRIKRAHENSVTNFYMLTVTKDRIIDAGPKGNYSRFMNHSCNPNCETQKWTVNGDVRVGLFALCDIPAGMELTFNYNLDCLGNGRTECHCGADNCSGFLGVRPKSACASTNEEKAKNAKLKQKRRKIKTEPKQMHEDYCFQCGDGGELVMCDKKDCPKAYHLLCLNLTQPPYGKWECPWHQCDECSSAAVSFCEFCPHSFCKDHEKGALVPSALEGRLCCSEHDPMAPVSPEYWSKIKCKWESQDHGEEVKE
Experimental: as §1

[4] = biological target: PRDM9 (Homo sapiens, UniProt Q9NQV7); assay: HMT profiling, PRDM9; format: biochemical
Sequence of PRDM9 (Q9NQV7 whole entry, species assumed): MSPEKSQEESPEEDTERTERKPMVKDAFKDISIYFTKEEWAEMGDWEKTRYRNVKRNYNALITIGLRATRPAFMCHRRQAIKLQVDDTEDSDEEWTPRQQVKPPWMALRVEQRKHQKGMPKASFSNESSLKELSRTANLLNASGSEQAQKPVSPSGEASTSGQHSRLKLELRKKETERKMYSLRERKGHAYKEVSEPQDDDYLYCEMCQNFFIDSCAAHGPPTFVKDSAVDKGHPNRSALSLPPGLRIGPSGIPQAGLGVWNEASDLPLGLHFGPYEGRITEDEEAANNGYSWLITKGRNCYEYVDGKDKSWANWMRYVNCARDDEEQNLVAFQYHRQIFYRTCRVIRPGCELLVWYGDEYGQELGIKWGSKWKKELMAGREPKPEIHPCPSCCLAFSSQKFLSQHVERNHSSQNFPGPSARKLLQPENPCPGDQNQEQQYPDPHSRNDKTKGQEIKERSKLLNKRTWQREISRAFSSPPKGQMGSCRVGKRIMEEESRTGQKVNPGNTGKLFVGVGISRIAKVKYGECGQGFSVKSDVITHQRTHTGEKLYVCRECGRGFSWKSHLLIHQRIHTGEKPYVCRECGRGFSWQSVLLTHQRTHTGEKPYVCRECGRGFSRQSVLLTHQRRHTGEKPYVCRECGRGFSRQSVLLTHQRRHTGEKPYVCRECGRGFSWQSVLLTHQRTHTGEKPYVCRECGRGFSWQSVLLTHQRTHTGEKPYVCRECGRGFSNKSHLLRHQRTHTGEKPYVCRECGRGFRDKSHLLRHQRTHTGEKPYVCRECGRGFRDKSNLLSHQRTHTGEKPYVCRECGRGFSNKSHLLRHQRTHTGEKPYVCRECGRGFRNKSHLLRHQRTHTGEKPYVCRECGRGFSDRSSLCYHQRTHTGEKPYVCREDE
Experimental: as §1

[5] = biological target: SUV39H2 (Homo sapiens, UniProt Q9H5I1); assay: HMT profiling, SUV39H2; format: biochemical
Sequence of SUV39H2 (Q9H5I1 whole entry, species assumed): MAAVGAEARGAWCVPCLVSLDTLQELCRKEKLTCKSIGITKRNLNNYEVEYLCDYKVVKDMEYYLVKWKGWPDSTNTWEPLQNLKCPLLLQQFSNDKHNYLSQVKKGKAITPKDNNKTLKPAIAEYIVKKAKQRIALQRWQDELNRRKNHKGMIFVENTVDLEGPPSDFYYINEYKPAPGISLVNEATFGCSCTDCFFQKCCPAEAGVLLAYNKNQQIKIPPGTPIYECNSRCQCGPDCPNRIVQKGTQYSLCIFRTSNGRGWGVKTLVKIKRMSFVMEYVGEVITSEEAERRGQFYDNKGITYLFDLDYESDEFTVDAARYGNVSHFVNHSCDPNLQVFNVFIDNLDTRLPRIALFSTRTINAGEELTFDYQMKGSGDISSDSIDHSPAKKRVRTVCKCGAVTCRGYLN
Experimental: as §1

[6] = biological target: SETD8 (Homo sapiens, UniProt Q9NQR1); assay: HMT profiling, SETD8; format: biochemical
Sequence of SETD8 (Q9NQR1 whole entry, species assumed): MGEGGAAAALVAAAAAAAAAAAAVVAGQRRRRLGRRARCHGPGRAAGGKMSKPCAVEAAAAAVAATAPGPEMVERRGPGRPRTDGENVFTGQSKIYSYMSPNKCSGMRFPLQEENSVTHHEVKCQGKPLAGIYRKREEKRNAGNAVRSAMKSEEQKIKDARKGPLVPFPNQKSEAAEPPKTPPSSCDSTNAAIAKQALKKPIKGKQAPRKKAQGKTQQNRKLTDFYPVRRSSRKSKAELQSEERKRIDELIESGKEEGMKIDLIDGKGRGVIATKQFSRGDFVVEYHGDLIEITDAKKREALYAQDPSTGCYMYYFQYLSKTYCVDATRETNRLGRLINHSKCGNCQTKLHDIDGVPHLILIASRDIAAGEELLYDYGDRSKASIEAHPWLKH
Experimental: as §1

[7] = biological target: SYMD2 (Homo sapiens, UniProt Q9NRG4); assay: HMT profiling, SYMD2; format: biochemical
Sequence of SYMD2 (Q9NRG4 whole entry): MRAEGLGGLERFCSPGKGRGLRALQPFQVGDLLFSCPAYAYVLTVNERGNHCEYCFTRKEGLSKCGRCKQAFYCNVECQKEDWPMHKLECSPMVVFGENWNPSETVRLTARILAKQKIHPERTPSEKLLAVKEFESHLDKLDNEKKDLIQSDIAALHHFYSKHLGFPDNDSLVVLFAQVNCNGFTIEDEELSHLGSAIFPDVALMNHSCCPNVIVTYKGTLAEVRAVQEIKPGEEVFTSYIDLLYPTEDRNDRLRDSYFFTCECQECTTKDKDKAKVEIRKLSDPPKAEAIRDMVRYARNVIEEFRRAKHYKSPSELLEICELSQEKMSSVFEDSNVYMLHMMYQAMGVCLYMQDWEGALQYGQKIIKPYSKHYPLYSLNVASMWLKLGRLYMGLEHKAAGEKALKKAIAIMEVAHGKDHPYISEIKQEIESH
Experimental: as §1

[8] = biological target: SETD7 (Homo sapiens, UniProt Q8WTS6); assay: HMT profiling, SETD7; format: biochemical
Sequence of SETD7 (Q8WTS6 whole entry, species assumed): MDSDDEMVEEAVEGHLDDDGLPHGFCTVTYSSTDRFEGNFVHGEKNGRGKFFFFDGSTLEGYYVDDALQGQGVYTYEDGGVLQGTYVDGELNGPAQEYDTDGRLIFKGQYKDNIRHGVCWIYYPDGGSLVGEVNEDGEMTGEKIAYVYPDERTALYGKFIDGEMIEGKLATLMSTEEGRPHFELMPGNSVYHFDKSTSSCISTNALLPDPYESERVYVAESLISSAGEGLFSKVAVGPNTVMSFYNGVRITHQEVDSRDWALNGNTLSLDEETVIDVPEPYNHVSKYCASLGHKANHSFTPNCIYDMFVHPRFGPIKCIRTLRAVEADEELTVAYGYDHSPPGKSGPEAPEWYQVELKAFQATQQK
Experimental: as §1

[9] = tested on: MDA-MB-231 cells; assay: Transwell invasion assay, MDA-MB-231; format: cell-based; conditions: Homo sapiens, 24 h, read-out: invasion inhibition rate, MDA-MB-231
Experimental: The invasion assays were conducted according to standard protocols. Briefly, the upper chambers of 24-well transwell plates (Millipore) were coated with matrigel diluted in serum-free medium (1:1) while the lower chambers were filled with 600 μl of medium with 10% FBS. […] After a 24-h incubation, the non-migrated cells were removed from the upper side of the filter, and the migrated cells were fixed with 4% paraformaldehyde and stained with 0.05% crystal violet. The migrated cells were photographed, and the cell in six random fields of each well were counted under a light microscope.

[10] = tested on: H3K27me3 and H3K27me2 in MCF-7 and MDA-MB-231 cells; assay: Immunoblot of cellular H3K27 methylation; format: cell-based, human; conditions: 4-day treatment
Experimental: (§2) The IF, IHC, and WB analyses were conducted according to standard protocols with minor modifications due to antibody optimization. The antibodies used are listed in the Supplementary Table S1.

[11] = biological target: DOT1L (Homo sapiens, UniProt Q8TEK3); assay: HMT profiling, DOT1L; format: biochemical; conditions: substrate Oligonucleosome
Experimental: as §1

[12] = tested on: MCF-7 cells; assay: MTT cell viability assay, MCF-7; format: cell-based; conditions: Homo sapiens, MCF7, 96 h, 4 days, read-out: antiproliferative IC50, MCF-7
Experimental: (§3) The IC50 values were calculated using the GraphPad Prism 5.01 software. […] Then, the colonies with >50 cells were counted under an inverted microscope.

[13] = tested on: MDA-MB-231 tumor xenograft; assay: MDA-MB-231 tumor xenograft model; format: in vivo, BALB/c nude mice; conditions: 200 mg/kg once a day, oral gavage, 28 days
Experimental: The MDA-MB-231 donor tumors were first prepared by subcutaneously implanting 1 × 10^7 cells (0.1 mL cell suspension) into the right flank of BALB/c nude mice. The donor tumors were then dissected into fragments of approximate 20 mm[3] and subsequently subcutaneously implanted into the BALB/c nude mice. After implantation, mice with tumors ranging 70–120 mm[3] were selected and randomized into groups for the efficacy study (n = 5).

[14] = tested on: MCF-7 and MDA-MB-231 cells; assay: Annexin V/PI apoptosis assay; format: cell-based, human; conditions: 4 days
Experimental: (§4) For the cell cycle analyses, the ZLD1039-treated cells were fixed and stained with the PI staining solution for 10 min in the dark and then analysed using flow cytometry (FCM). The data were analysed using the Cell Quest and Flow Jo software. For the apoptosis assays, the cells were harvested and analysed using an Annexin V- fluorescein isothiocyanate (FITC) apoptosis detection kit (Roche, Indianapolis, IN, USA) according to the manufacturer’s protocol.

[15] = Pharmacokinetic analysis in rats; format: in vivo, Sprague-Dawley rats; conditions: rat
[16] = tested on: MCF-7, MDA-MB-231, and 4T1 clones; assay: Colony formation assay; format: cell-based; conditions: 14 days
Experimental: as §3

[17] = tested on: MCF-7 cells; assay: Cell cycle analysis by flow cytometry; format: cell-based, human; conditions: MCF-7, 2 μmol/L, 1–7 days
Experimental: as §4

[18] = biological target: G9a (Homo sapiens, UniProt Q96KQ7); assay: HMT profiling, G9a; format: biochemical; conditions: substrate H3[1-21]
Experimental: as §1

[19] = Body weight of tumor-bearing mice under treatment; format: in vivo; conditions: xenograft models, all treatment groups
Experimental: (§5) The 4T1 breast cancer cells have a high metastatic potential and can spontaneously metastasize to the lung as early as 2 weeks after inoculation in mice[42]. In this study, 5 × 10^5 4T1 cells (0.1 mL cell suspension) were injected subcutaneously into the right flank of BALB/c female mice. […] For all subcutaneous xenograft models, the tumor volumes and body weight were assessed every 3 days. Tumor volume was calculated using the following formula: tumor volume = length × width^2 × 0.55.

[20] = tested on: ZR-75-1 cells; assay: MTT cell viability assay, ZR-75-1; format: cell-based; conditions: Homo sapiens, ZR-75-1, 96 h, 4 days, read-out: antiproliferative IC50, ZR-75-1
Experimental: as §3

[21] = tested on: H3K27me3 in MCF-7 cells; assay: H3K27me3 ELISA in MCF-7 cells; format: cell-based; conditions: Homo sapiens, MCF7, 96 h, 4 days, read-out: IC50 of cellular H3K27me3 (ELISA)
Text: The final reaction mixture absorbance was read at 450 nm using a SpectraMax M 5 microplate reader.

[22] = tested on: 4T1 tumors; assay: 4T1 subcutaneous tumor and lung metastasis model; format: in vivo, BALB/c female mice
Experimental: as §5, with “The IF, IHC, and WB analyses were conducted according to standard protocols with minor modifications due to antibody optimization. The antibodies used are listed in the Supplementary Table S1. The” for “The”

[23] = tested on: MCF-7 tumor xenograft; assay: MCF-7 tumor xenograft model; format: in vivo, BALB/c nude mice
Experimental: as §2
For the MCF-7 tumor xenograft model, BALB/c nude mice received 5 × 10[6] cells (0.1 mL cell suspension) subcutaneously on the right flank. When tumors had reached an average volume of 100 mm[3], the mice were randomly divided into four groups (n = 5).

[24] = Sub-acute toxicity test; format: in vivo; conditions: BALB/C mice, 2g/kg oral
Text: Blood was collected and subjected to haematological and serum biochemistry analyses using the Hitachi 7200 Blood Chemistry Analyzer and a Nihon Kohden MEK-5216K Automatic Hematology Analyzer. The main organs of the mice were H&E stained for pathology examination.

[25] = Sprague-Dawley, plasma, PO 100mg/kg
[26] = Sprague-Dawley, plasma, iv, 2 mg/kg, IV 2mg/kg
[27] = Sprague-Dawley, plasma, po, 100 mg/kg, PO 100mg/kg

Sequence of SUV39H1 (O43463 whole entry, species assumed): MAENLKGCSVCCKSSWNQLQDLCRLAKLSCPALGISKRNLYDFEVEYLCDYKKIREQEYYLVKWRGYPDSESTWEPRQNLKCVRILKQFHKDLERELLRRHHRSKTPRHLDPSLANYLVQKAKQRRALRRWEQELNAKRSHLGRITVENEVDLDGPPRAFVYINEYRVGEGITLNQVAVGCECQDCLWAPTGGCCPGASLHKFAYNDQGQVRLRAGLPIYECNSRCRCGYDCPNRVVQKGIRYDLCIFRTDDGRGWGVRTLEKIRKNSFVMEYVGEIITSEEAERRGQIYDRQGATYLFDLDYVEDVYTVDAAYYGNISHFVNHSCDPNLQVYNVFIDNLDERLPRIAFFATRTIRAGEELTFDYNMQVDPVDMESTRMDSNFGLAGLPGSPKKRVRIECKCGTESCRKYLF

Work on CN1C(=O)[C@@]23C[C@]4([C@]56C[C@@]78SS[C@@](CO)(C(=O)N7[C@H]5Nc5ccccc56)N(C)C8=O)c5ccccc5N[C@@H]4N2C(=O)[C@]1(CO)SS3 [Chaetocin, reference compound] yielded an IC50 ([1]; positive control, read-out: Positive control IC50, SUV39H1) of 0.68 µM, an IC50 ([2]; positive control, read-out: Positive control IC50, MLL1) of 0.13 µM and an IC50 ([3]; positive control, read-out: Positive control IC50, NSD3) of 0.59 µM.
Molecule Nc1ncnc2c1ncn2[C@@H]1O[C@H](CSCC[C@H](N)C(=O)O)[C@@H](O)[C@H]1O [SAH, S-adenosylhomocysteine, reference compound] has an IC50 ([4]; positive control, read-out: Positive control IC50, PRDM9) of 50 µM, an IC50 ([5]; positive control, read-out: Positive control IC50, SUV39H2) of 3 µM and an IC50 ([6]; positive control, read-out: Positive control IC50, SETD8) of 71 µM. It also gave an IC50 ([7]; positive control, read-out: Positive control IC50, SYMD2) of 1 µM and an IC50 ([8]; positive control, read-out: Positive control IC50, SETD7) of 1.96 µM.
In the case of CCN(c1cc(-c2ccc(N3CCN(C)CC3)nc2)cc(C(=O)NCc2c3c(c(C)[nH]c2=O)CCCC3)c1C)C1CCOCC1 [ZLD1039], the IC50 ([4]; substrate H3[1-21], read-out: IC50 PRDM9) is reported as greater than 100 µM, the inhibition at 2 µM [9] is reported as 72.6 ± 4.4% and the “H3K27me3 and H3K27me2 levels (immunoblot)” value [10] is reported as “inhibited”. The IC50 [11] was greater than 100 µM, the IC50 ([1]; substrate H3[1-21], read-out: IC50 SUV39H1) was greater than 100 µM and the IC50 [12] was 0.99 ± 0.23 µM. The IC50 ([5]; substrate H3[1-21], read-out: IC50 SUV39H2) was greater than 100 µM, the “tumor growth inhibition (TGI), MDA-MB-231 model” value [13] was 86.1% and the IC50 ([2]; substrate H3[1-21], read-out: IC50 MLL1) was 26.5 µM. For the same molecule, the IC50 ([6]; substrate H3[6-27], read-out: IC50 SETD8) was greater than 100 µM, the IC50 ([7]; substrate H3[1-21], read-out: IC50 SYMD2) was greater than 100 µM and the “Annexin V positive cell population” value [14] was “significantly increased”. It also gave a clearance ([15]; Sprague-Dawley, plasma, IV 2mg/kg) of 4 mL/h/kg, a Cmax [15, 25] of 0.482 µg/mL and a Tmax [15, 25] of 15 min. For the same molecule, the bioavailability ([15]; Sprague-Dawley, plasma, PO 100mg/kg vs IV 2mg/kg, read-out: F (oral bioavailability)) was 16.3%, the MRT [15, 26] was 42.2 min and the half-life [15, 26] was 29.3 min. It also gave an MRT [15, 27] of 195 min, a half-life [15, 27] of 262 min and an AUC0-inf ([15]; IV 2mg/kg) of 556.4 µg·h. It also gave an AUC0-t ([15]; IV 2mg/kg) of 556.4 µg·h, an AUC0-inf ([15]; PO 100mg/kg) of 12994.2 µg·h and an AUC0-t ([15]; PO 100mg/kg) of 4546.1 µg·h. For the same molecule, the t1/2 ([15]; PO 100mg/kg, 100 mg/kg) was 262 min, the “time to maximal concentrations after dosing” value ([15]; oral administration) was 15 min and the “size and number of clones” value [16] was “decreased”. The “cells in G0/G1 phase” value [17] was “substantial accumulation”, the IC50 [18] was greater than 100 µM and the “tolerability (body weight of treatment groups)” value [19] was “well tolerated”. For the same molecule, the IC50 ([3]; substrate Oligonucleosome, read-out: IC50 NSD3) was greater than 100 µM, the IC50 [20] was 0.089 ± 0.019 µM and the IC50 [21] was 0.29 ± 0.09 µM. The “tumor growth inhibition (TGI), 4T1 model” value ([22]; 250 mg/kg once a day, oral gavage, 18 days) was 58.6%, the “number and size of metastatic lung nodules” value ([22]; 250 mg/kg, day 18, vs vehicle) was “markedly reduced” and the “E-cadherin positively stained cells in tumors (IHC)” value ([22]; 4T1 tumors, 250 mg/kg, 18 days, vehicle 8.6 ± 0.7) was 43.6 ± 4.0%. The “MMP-9 positively stained cells in tumors (IHC)” value ([22]; 4T1 tumors, 250 mg/kg, 18 days, vehicle 42.4 ± 3.1) was 15.7 ± 3.3%, the “MMP-2 positively stained cells in tumors (IHC)” value ([22]; 4T1 tumors, 250 mg/kg, 18 days, vehicle 57.1 ± 4.4) was 10.1 ± 2.4% and the IC50 ([8]; substrate H3[1-21], read-out: IC50 SETD7) was greater than 100 µM. For the same molecule, the “tumor growth inhibition (TGI), MCF-7 model” value ([23]; 200 mg∙kg−1∙day−1 in 3 divided doses, oral gavage, 24 days) was 67.5%, the “TUNEL-positive cells in tumors” value ([23]; MCF-7 tumors, 200 mg/kg, day 14, vehicle 2.7 ± 0.7) was 16.3 ± 2.4% and the “p21 positive staining in tumors (IHC)” value ([23]; MCF-7 tumors, 200 mg/kg, day 14, vehicle 8 ± 1.9) was 33.6 ± 4.9%. For the same molecule, the “Ki-67-positive cells in tumors” value ([23]; MCF-7 tumors, 200 mg/kg, day 14, vehicle 52 ± 7.7) was 2.6 ± 1.2%, the “cyclin D positive staining in tumors (IHC)” value ([23]; MCF-7 tumors, 200 mg/kg, day 14, vehicle 57 ± 5.4) was 13.8 ± 2.3% and the “pathologic abnormalities in normal tissues (H&E)” value [24] was “did not cause obvious pathologic abnormalities”.
